Experimental data as given in patent publication US6610670B2, “Cyclodextrin-drospirenone inclusion complexes” (Schering Aktiengesellschaft, priority 2000, dated 2003).

Assay: Phase solubility diagram technique (PSD) in aqueous solutions at 20° C.
Format: physicochemical
Settings: water, thermodynamic from solid, aqueous solution
Protocol: The following data were obtained with the phase solubility diagram technique (PSD) In aqueous solutions at 20° C. The stability constants of the inclusion compound from β-CD and drospirenone are given.

SMILES: C[C@]12CCC(=O)C=C1[C@@H]1C[C@@H]1[C@H]1[C@@H]3[C@@H]4C[C@@H]4[C@@]4(CCC(=O)O4)[C@@]3(C)CC[C@@H]12 [Drospirenone, 6β,7β;15β,16β-dimethylene-3-oxo-17α-pregn-4-ene-21,17-carbolactone]
- solubility: 41.4 µM
- solubility (value in parentheses): 15.1 µg/mL
